≈ marks a conversion by molar mass, not a printed value. Read-outs that look alike come from different tables or passages of the source. Peptide text beside a SMILES is read from it. * marks the point of attachment. X1 = O=C(c1ccc2c3nc4nc(nc5[nH]c(nc6nc(nc([nH]3)c2c1)-c1ccccc1-6)c1ccccc51)-c1ccccc1-4)*
Columns and labels:
MRSA (ATCC 33591) [1] = assay: Photo-assisted antimicrobial activity by colony counting method; type: cell-based, methicillin-resistant S. aureus; details: 2 μM, 6 min illumination, 12 J/cm^2, 33.33 mW/cm^2, colony counting, start 10^6 CFU/ml
Experimental: (§1) E. coli (ATCC 8739), S. aureus (ATCC 6538), or MRSA (ATCC 33591) were grown in LB culture medium at 37°C under aerobic conditions overnight (8–12 h) before use.
(§2) Photo-assisted antimicrobial activity assays of the compound peptides against ATCC standard strains were carried out by colony counting method. The agar plates with only bacterial suspension were used as negative control. The peptide and bacterial suspension were incubated together in 96-well microplates first. Under the same conditions, for comparison, the other groups were set without light. After incubation for 40 min at room temperature, aliquots of 100 μl were taken out of the solutions and placed on agar plates at serial dilutions, then incubated at 37°C for 18–24 h. Numbers of colonies were counted, and the antimicrobial rate (R) was calculated: R = (B-A)/B × 100%. Here, A is the bacterial colony number on the agar plates containing various concentrations of the peptides, and B is the colony number for negative control.

S. aureus [2] = details: 1-MIC, 12 h, OD600 hourly, 37°C
bioluminescent S. aureus [3] = type: cell-based, Staphylococcus aureus; details: for IC50: bioluminescent S. aureus, 680 nm LED 6 min, 12 J/cm^2, 33.33 mW/cm^2, after 10 min incubation, triplicate, mean ± SD, read-out: IC50 against S. aureus upon illumination
Experimental: (§3) Bioluminescent bacteria were grown in Luria-Bertani (LB) culture medium at 37°C under aerobic conditions overnight 8–12 diluted 100 times to 10^6 colony-forming units (CFU)/ml in phosphate buffered saline (PBS) before incubating with the peptides. The peptide or new compounds were first dissolved in PBST (PBS with 0.05% Tween 20) to prepare 1-mM stock solutions, and the solutions were then further diluted up to 100 μM with PBST. The bacterial suspensions were then incubated in 96-well plates with the compound peptides. The luminescence was monitored for 1 h to measure the bacterial viability. The percentage of survived bacteria was determined from the luminescence intensities of the treated group divided by the luminescence signal of the controls.
(§4) For photo-assisted antimicrobial activity measurements against bioluminescent bacteria, we used a procedure similar to as above, but with illumination using LM-LED light (680 nm) for 6 min (light dose of 12 J/cm^2, 33.33 mW/cm^2) after 10 min incubation of the bacterial suspensions and the compound peptides.

bioluminescent S. aureus [4] = type: cell-based, Staphylococcus aureus; details: without light; for higher efficacy than compound 1 or 2: on both bacterial strains (bioluminescent S. aureus and E. coli); for IC50: bioluminescent S. aureus, 10^6 CFU/ml in PBS, peptides in PBST, luminescence monitored 1 h, triplicate, mean ± SD, read-out: IC50 against S. aureus
Excerpt: The side chain-protected peptides G3(RW)3, G3(RW)3K5, and G3K5(RW)3 on Wang resin were obtained commercially (GL Biochem Ltd., Shanghai). Beta-carboxy phthalocyanine zinc was developed by us by a method previously reported ([Chen et al., 2006]). Beta-carboxy phthalocyanine (β-PcCOOH) was purified on a silica column with N,N-dimethylformamide (DMF):acetone (3:1) as the second band. All the chemical reagents were analytical grade and used without further purification. Distilled water was used throughout the experiments. E. coli (ATCC 8739), S. aureus (ATCC 6538), and MRSA (ATCC 33591) were acquired from ATCC. Bioluminescent strains of E. coli DH5α were constructed by transformation of plasmid pAKlux2.1, which contained a complete bacterial luciferase operon as described ([Ullah et al., 2018]; [Chen et al., 2019]), and S. aureus Xen29 (NCTC8532) containing a stable copy of the modified Photorhabdus luminescens luxABCDE operon was purchased from Shanghai Biofeng Company.
as §3

S. aureus [5] = system: S. aureus
Excerpt: Kunming mice (4-week-old, 25 ± 2 g, purchased from Shanghai SLAC Laboratory Animal Co. Ltd., Shanghai, China) were maintained and handled in accordance with the recommendations of the Institutional Animal Care And Use Committee (IACUC). […] Each group had six mice. All groups of mice were allowed free access to water and food throughout the experimental process. In each group, excisional wounds (10 mm × 10 mm) was made on the dorsal surface of the mouse by disinfected scissors to a depth of 2.0 mm. The bottom of the wound was panniculus carnosus with no visible bleeding. An aliquot (50 μl) of mid-log phase S. aureus (10^8 CFU/ml) was then inoculated into each wound of mice. […] The area of the wounds and body weight of mice were measured each day.

[6] = mouse, in vivo, iv
Experimental: The mice were sacrificed at 2, 4, 8, 12, 24, 36, 48, and 72 h post-injection, and their primary organs (liver, kidneys, heart, spleen, lung, stomach, intestines) or muscles were collected postmortem. Meanwhile, their blood was collected through enucleation of eyeballs. These samples were then washed with saline and imaged on the three-dimension FMT 2500TM LX (PerkinElmer, Waltham, MA, United States) using the same acquisition settings as the in vivo imaging to quantitate the peptide average concentrations in the samples.

MRSA (ATCC 33591) [7] = type: cell-based, methicillin-resistant S. aureus; details: ATCC 33591, 20 h
Experimental: as §1
(§5) Bactericidal kinetics assay was also determined.

S. aureus (ATCC 6538) [8] = details: 2 μM
Experimental: as §1, §2

E. coli (ATCC 8739) [9] = details: 2 μM
Experimental: as §1, §2

in vitro = details: human, human embryonic lung fibroblast (HELF) cells
Experimental: The culture medium was used as control. The cells were washed with PBS, then were divided into two groups, and the light group was exposed to 12 J/cm^2 of 680 nm light illumination. After another 12-h incubation, the culture medium was refreshed and 3-(4,5-dimethylthiazol-2-yl)-2,5-diphenyltetrazolium bromide (MTT) was added. After 4-h incubation at 37°C, the absorbance at 490 nm was measured on a multi-mode microplate reader (BioTek Synergy 4). The inhibition rate of cell growth was calculated by the following equation:
Cell viability%=Mean absorbance value of treatment group/Mean absorbance value of control×100%

[10] = mouse, in vivo, iv; remark: listed apart in the source
Experimental: The blood of mice was diluted 10 times with DMF, immediately after collection, and then centrifuged to get supernatant for further determination. The supernatant was measured by fluorescence spectrophotometer F-4600 (HITACHI, Tokyo, Japan). The fluorescence intensity was recorded. The excitation and emission wavelengths were set at 610 and 680 nm. […] The plasma half-life (t1/2) can be calculated by the following formula:
Here, k represents the slope of fluorescence intensity-log (concentration) regression equation.

S. aureus (ATCC 6538) [11] = type: cell-based, Staphylococcus aureus; details: ATCC 6538, 20 h
Experimental: as §1, §5

E. coli (ATCC 8739) [12] = type: cell-based, Escherichia coli; details: ATCC 8739, 20 h
Experimental: as §1, §5

E. coli = details: 1-MIC, 12 h, OD600 hourly, 37°C
Experimental: Bactericidal kinetics assay was also determined. Different final concentrations (0, 1/8-, 1/4-, 1/2-, 1-MIC) of the peptides were added to the bioluminescent S. aureus suspension (10^3 CFU/ml). The bacteria were incubated at 37°C and 150 rpm. An aliquot of 100 μl of the suspension was taken out to measure the absorption at 600 nm on microplate reader once an hour for up to 12 h.

bioluminescent E. coli [13] = assay: Photo-assisted antimicrobial activity against bioluminescent bacteria; type: cell-based, Escherichia coli; details: 680 nm LED 6 min, 12 J/cm^2, 33.33 mW/cm^2, after 10 min incubation, triplicate, mean ± SD, read-out: IC50 against E. coli upon illumination
Experimental: as §3, §4

bioluminescent E. coli [14] = type: cell-based, Escherichia coli; details: 10^6 CFU/ml in PBS, peptides in PBST, luminescence monitored 1 h, without light, triplicate, mean ± SD, read-out: IC50 against E. coli
Excerpt: The side chain-protected peptides G3(RW)3, G3(RW)3K5, and G3K5(RW)3 on Wang resin were obtained commercially (GL Biochem Ltd., Shanghai). Beta-carboxy phthalocyanine zinc was developed by us by a method previously reported ([Chen et al., 2006]). Beta-carboxy phthalocyanine (β-PcCOOH) was purified on a silica column with N,N-dimethylformamide (DMF):acetone (3:1) as the second band. All the chemical reagents were analytical grade and used without further purification. Distilled water was used throughout the experiments. E. coli (ATCC 8739), S. aureus (ATCC 6538), and MRSA (ATCC 33591) were acquired from ATCC. […]
Bioluminescent bacteria were grown in Luria-Bertani (LB) culture medium at 37°C under aerobic conditions overnight 8–12 diluted 100 times to 10^6 colony-forming units (CFU)/ml in phosphate buffered saline (PBS) before incubating with the peptides. […] The luminescence was monitored for 1 h to measure the bacterial viability. The percentage of survived bacteria was determined from the luminescence intensities of the treated group divided by the luminescence signal of the controls.

[15] = 36-s exposure or 0.60 J/cm^2, 33.33 mW/cm^2
[16] = 6 min illumination, 12 J/cm^2, 33.33 mW/cm^2, colony counting
[17] = 6 min illumination, 12 J/cm^2, 33.33 mW/cm^2, colony counting, start 10^6 CFU/ml

Molecule	higher efficacy than compound 1 or 2 (bioluminescent S. aureus [4])	MIC against MRSA (MRSA (ATCC 33591) [7])	MIC against S. aureus (S. aureus (ATCC 6538) [11])	MIC against E. coli (E. coli (ATCC 8739) [12])	IC50 (bioluminescent S. aureus [3])	IC50 (bioluminescent S. aureus [4])	IC50 (bioluminescent E. coli [13])	IC50 (bioluminescent E. coli [14])	further results
N=C(N)NCCC[C@H](NC(=O)[C@H](Cc1c[nH]c2ccccc12)NC(=O)[C@H](CCCNC(=N)N)NC(=O)[C@H](Cc1c[nH]c2ccccc12)NC(=O)[C@H](CCCNC(=N)N)NC(=O)[C@H](CCCCN)NC(=O)[C@H](CCCCN)NC(=O)[C@H](CCCCN)NC(=O)[C@H](CCCCN)NC(=O)[C@H](CCCCN)NC(=O)CNC(=O)CNC(=O)CNC(=O)c1ccc2c3nc4nc(nc5[nH]c(nc6nc(nc([nH]3)c2c1)-c1ccccc1-6)c1ccccc51)-c1ccccc1-4)C(=O)N[C@@H](Cc1c[nH]c2ccccc12)C(=O)O [Compound 4, PcG3K5(RW)3] (X1-GGGKKKKKRWRWRW-OH)	2–4 times	16.1 µM (≈ 38.6 µg/mL)	8.0 µM (≈ 19.2 µg/mL)	16.1 µM (≈ 38.6 µg/mL)	–	–	–	–	log reduction of MRSA (MRSA (ATCC 33591) [1]): up to 5 log; bacterial proliferation of S. aureus at MIC (S. aureus [2]): completely stopped; increase of inhibitory efficacy upon illumination (bioluminescent S. aureus [3]; red light / LED illumination vs no light, S. aureus and E. coli): ~ 140 fold; wound recovery with one-time illumination (S. aureus [5]; 20 μM local, one-time 680-nm illumination 12.0 J/cm^2, 33.33 mW/cm^2, vs without illumination): better wound recovery than the ones without illumination at the first 3 days after surgery; wound healing of S. aureus infected excisional wounds (S. aureus [5]; 50 μl of 20 μM local administration, without light, n = 6 per group): promoted wound healing and prevented or alleviated the infection; time to be cleared out of organs [6]: ≤ 72 h; elimination of S. aureus at low dose of light (S. aureus (ATCC 6538) [8]; [15]): ~95%; reduction of S. aureus (S. aureus (ATCC 6538) [8]; [16]): ≤ 99.999%; log reduction of S. aureus (S. aureus (ATCC 6538) [8]; [17]): up to 5 log; elimination of E. coli at low dose of light (E. coli (ATCC 8739) [9]; [15]): about 80%; reduction of E. coli (E. coli (ATCC 8739) [9]; [16]): 99.9%; log reduction of E. coli (E. coli (ATCC 8739) [9]; [17]): 3 log; viability at 24 h (in vitro): > 90%; plasma half-life (t1/2) [10]: 11.09 h; bacterial proliferation of E. coli at MIC (E. coli): completely stopped
H-GGGKKKKKRWRWRW-OH [Compound 1, G3K5(RW)3]	–	107.8 µM	107.8 µM	>215.6 µM	44.6 ± 4.72 µM	45.6 ± 2.9 µM	59.2 ± 1.97 µM	61.8 ± 4.3 µM	–
N=C(N)NCCC[C@H](NC(=O)CNC(=O)CNC(=O)CNC(=O)c1ccc2c3nc4nc(nc5[nH]c(nc6nc(nc([nH]3)c2c1)-c1ccccc1-6)c1ccccc51)-c1ccccc1-4)C(=O)N[C@@H](Cc1c[nH]c2ccccc12)C(=O)N[C@@H](CCCNC(=N)N)C(=O)N[C@@H](Cc1c[nH]c2ccccc12)C(=O)N[C@@H](CCCNC(=N)N)C(=O)N[C@@H](Cc1c[nH]c2ccccc12)C(=O)N[C@@H](CCCCN)C(=O)N[C@@H](CCCCN)C(=O)N[C@@H](CCCCN)C(=O)N[C@@H](CCCCN)C(=O)N[C@@H](CCCCN)C(=O)O [Compound 5, PcG3(RW)3K5] (X1-GGGRWRWRWKKKKK-OH)	2–4 times	16.1 µM (≈ 38.6 µg/mL)	16.1 µM (≈ 38.6 µg/mL)	16.1 µM (≈ 38.6 µg/mL)	–	–	–	–	–
N=C(N)NCCC[C@H](NC(=O)CNC(=O)CNC(=O)CNC(=O)c1ccc2c3nc4nc(nc5[nH]c(nc6nc(nc([nH]3)c2c1)-c1ccccc1-6)c1ccccc51)-c1ccccc1-4)C(=O)N[C@@H](Cc1c[nH]c2ccccc12)C(=O)N[C@@H](CCCNC(=N)N)C(=O)N[C@@H](Cc1c[nH]c2ccccc12)C(=O)N[C@@H](CCCNC(=N)N)C(=O)N[C@@H](Cc1c[nH]c2ccccc12)C(=O)O [Compound 3, PcG3(RW)3] (X1-GGGRWRWRW-OH)	–	24.0 µM (≈ 42.2 µg/mL)	12.0 µM (≈ 21.1 µg/mL)	48.0 µM (≈ 84.3 µg/mL)	–	–	–	–	–
H-GGGRWRWRWKKKKK-OH [Compound 2, G3(RW)3K5]	–	107.8 µM	107.8 µM	>215.6 µM	71.6 ± 2.82 µM	68 ± 3.2 µM	129 ± 30.3 µM	135 ± 25.3 µM	–

From paper PMC8203924, “Development of a Potent Antimicrobial Peptide With Photodynamic Activity” (Frontiers in Microbiology, 2021)
